Measured values as given in publication PMC12706794, “Identification and Characterization of a Small-Molecule Inhibitor of the Pseudomonas aeruginosa SOS Response” (ACS Infectious Diseases, 2025).

Legend:
[1] = molecular target: T1, RecAPa (Pseudomonas aeruginosa, UniProt P08280); experiment: ESI-MS analysis of RecAPa preincubated with A12; format: binding, P. aeruginosa; conditions: 2 mM A12, 2 h at 25 °C; condensation, Lys285
T1 construct: made in house; host or cells: E. coli BL21(DE3)
Method: Then, ESI-MS analysis was carried out on both RecAPa and LexAPa alone and preincubated with A12 (referred to as RecAPa-A12 and LexAPa-A12, respectively).
MS analysis was carried out on 5 μL samples of compound A12 (2 mM), of the proteins 6His-LexAPa and 6His-RecAPa (50 μM), and of the same proteins incubated with 2 mM A12 (2 h incubation at 25 °C, 10% v/v DMSO in 100 mM NaHCO3 pH 7.0). Aliquots of the latter samples were treated with 5 mM dithiothreitol (DTT) for 1 h at 25 °C before being buffer-exchanged in 100 mM NaHCO3 at pH 7.0. Samples were analyzed by an electrospray ionization (ESI) mass spectrometer equipped with a Xevo G2-XS ESI-Q-TOF mass spectrometer (Waters Corporation, Milford, Massachusetts, USA). Measurements were carried out at 1.5–1.8 kV capillary voltage and 30–40 V cone voltage.
Tryptic digestion was obtained at a 1:20 trypsin to protein ratio (by weight) after the incubation of the proteins (6His-LexAPa and 6His-RecAPa) with chemical compound A12. The reaction was left at 37 °C overnight and then stopped by freezing at – 20 °C. Proteolytic mixtures were analyzed by LC–MS, using an Agilent AdvanceBio Peptide Map column (2.1 × 150 mm × 2.7 μm; Santa Clara, CA, USA) connected to an Acquity H-Class instrument (Waters Corporation, Milford, Massachusetts, USA). […]

[2] = molecular target: T2, RecAPa*-induced FlAsH-LexAPa CTD autoproteolysis (Pseudomonas aeruginosa, UniProt P37452); experiment: FP-based RecA*-induced LexA autoproteolysis in vitro assay; format: biochemical, P. aeruginosa
T2 construct: 6His-SUMO (N, cleaved yes); made in house; host or cells: E. coli BL21(DE3)
Method: A custom-made library of 318 small molecules (MW < 1000 Da) has been screened at two different concentrations (25 μg/mL and 125 μg/mL, corresponding to molar concentrations of 30–170 μM and 150–850 μM, respectively) on the P. aeruginosa SOS system by a previously validated fluorescence polμarization (FP)-based RecA*-induced LexA autoproteolysis in vitro assay. , 1 μM FlAsH-LexAPa ^CTD and 1 μM preactivated RecA*Pa were incubated with the screened chemical fragments for 1 h at 37 °C before measuring FP.
Then, the FP-based LexA autoproteolysis assay was repeated on the two hits, monitoring the full kinetics of LexA cleavage over a 1 h incubation and exploring a wide range of drug concentrations (10–1000 μM).
A custom-made library of 318 chemical fragments (25 mg/mL stock solutions in DMSO), provided by P. Kavaliauskas (Weill Cornell Medicine of Cornell University) was screened in vitro for their ability to inhibit RecAPa*-mediated LexAPa autoproteolysis by a Fluorescence Polarization (FP)-based assay. , Twenty microliter reactions were set up in Nunc 384-Well Black microplates, and final reaction mixtures included 1 μM FlAsH-LexAPa ^CTD, the compounds (5% v/v DMSO in all the samples, including the controls devoid of compounds), and 1 μM RecAPa* (FP Buffer in the negative control; 30 mM Hepes, 150 mM NaCl, pH 7.1). The initial screening was performed with two dilutions of the compounds (25 and 125 μg/mL). The FP signal was measured after a 1 h incubation at 37 °C by an EnVision MultiMode Plate Reader (PerkinElmer) equipped with opportune FP filters and mirrors. To obtain LexAPa ^CTD autoproteolysis percent inhibition, FP data were scaled from 0% (corresponding to the positive control sample) to 100% (negative control).
Compounds displaying an inhibition of at least 50% at the highest concentration and a rather consistent increase in activity at the two tested concentrations were selected as the hits.
The same FP assay was carried out on serial dilutions of selected compounds to determine the dose–response relationship. To evaluate the effect of a reducing environment, 2 mM Tris(2-carboxyethyl)-phosphine (TCEP) was added to the reaction mixtures. The FP signal of FlAsH-LexAPa ^CTD alone was detected for 5 min before adding the compounds. The system was monitored for an additional 5 min in the presence of the tested compounds in order to observe potential aggregation events. Then, RecAPa* was added, and the autoproteolysis reaction was followed for 1 h at 37 °C (1 reading per minute). FlAsH-LexAPa ^CTD autoproteolysis percent inhibition was calculated as mentioned above and plotted as a function of compound concentration. Experimental data fitting was performed with GraphPad Prism 8 to obtain the absolute IC50.

[3] = test system: P. aeruginosa PAO1 on THP-1-derived macrophages; experiment: P. aeruginosa PAO1 colonization of THP-1-derived macrophages; format: cell-based
Method: THP-1-derived macrophages were generated from THP-1 monocytes as previously described, with minor modifications. , Briefly, THP-1 monocytes were washed three times with antibiotic-free RPMI 1640 medium and resuspended in complete antibiotic-free RPMI 1640 supplemented with 300 nM phorbol 12-myristate 13-acetate (PMA). Cells were incubated for 24 h, followed by a 48 h rest period in PMA-free RPMI 1640 prior to use in subsequent experiments. […] PMA-differentiated THP-1-derived macrophages were similarly trypsinized and seeded into 24-well plates at 5 × 10^5 cells/well in complete, antibiotic-free RPMI supplemented with FBS. Cells were incubated overnight to allow for attachment. Immediately prior to infection, the medium was aspirated, and cells were washed three times with Dulbecco’s phosphate-buffered saline. […] Infection was synchronized by centrifuging plates at 1000g for 1 min. […] Following the infection period, the medium was aspirated, and cells were washed three times with DPBS to remove unattached bacteria and residual test compounds. […] In both cases, the resulting lysates were serially diluted in DPBS and plated on tryptic soy agar plates. Plates were incubated at 37 °C for 24 h, after which colonies were enumerated. Bacterial burden was expressed as the CFU per well.

T2 sequence (P37452 81-204): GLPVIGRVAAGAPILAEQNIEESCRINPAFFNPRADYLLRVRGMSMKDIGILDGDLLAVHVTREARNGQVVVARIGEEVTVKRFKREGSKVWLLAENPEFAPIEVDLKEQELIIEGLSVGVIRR
T1 sequence (P08280 whole entry): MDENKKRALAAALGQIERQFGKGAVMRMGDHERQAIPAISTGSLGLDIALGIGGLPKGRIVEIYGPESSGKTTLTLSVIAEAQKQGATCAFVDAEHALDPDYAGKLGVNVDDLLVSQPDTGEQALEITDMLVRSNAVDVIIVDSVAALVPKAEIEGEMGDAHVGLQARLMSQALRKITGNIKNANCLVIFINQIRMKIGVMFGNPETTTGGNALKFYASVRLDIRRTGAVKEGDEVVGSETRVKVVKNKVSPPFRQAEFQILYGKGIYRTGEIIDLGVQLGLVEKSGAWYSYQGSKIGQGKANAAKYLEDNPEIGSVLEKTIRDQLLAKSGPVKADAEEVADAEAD

## O=C(O)CCNc1ccccc1S [A12, 3-(2-sulfanylanilino)propanoic acid]
[1]
  Mass difference of A12-modified RecAPa versus unmodified protein: 179 Da
[2]; 1 μM FlAsH-LexAPa CTD, 1 μM RecAPa*, 1 h at 37 °C, read-out: IC50 on RecA*Pa-induced LexAPa autoproteolysis (FP assay)
  IC50: 295 ± 12 µM
[2]; 2 mM TCEP
  A12 inhibitory activity under reducing conditions compared to nonreducing: significantly diminished
[2]; compound at 125 μg/mL, 1 h at 37 °C, read-out: LexA autoproteolysis inhibition in initial library screening
  inhibition at 125 µg/mL: > 50%
[3]; A12 100 μg/mL alone
  Intracellular (internalized) burden of PAO1 in THP-1-derived macrophages: reduced the internalized bacterial growth
[3]; combination of ciprofloxacin 0.5 μg/mL and A12 100 μg/mL
  Intracellular (internalized) burden of PAO1 in THP-1-derived macrophages: synergized with ciprofloxacin
[3]; single agent: ciprofloxacin 0.5 μg/mL or A12 100 μg/mL, 3 h infection
  Total (adherent + intracellular) burden of PAO1 on THP-1-derived macrophages: diminished
